Each structure is given as a SMILES string. The source made the active and inactive calls. No cut-off for these calls is given here.

In general, IC50 refers to the concentration that gives 50% inhibition.

The test system of assay [1] is HT-29. The assay is described as follows: Cytotoxicity against human HT-29 cells assessed as cell growth inhibition measured after 48 hrs by MTT assay. It is filed as functional, cell-based. The conditions noted are these: HT-29, 48 h.
The subject of the next assay is CCD-18Co. The assay is described as follows: Cytotoxicity against human CCD-18Co cells assessed as cell growth inhibition measured after 48 hrs by MTT assay. It is filed as cell-based.
Assay [2] can be described thus: Selectivity index, ratio of IC50 for human CCD-18Co cells to IC50 for human HT-29 cells assessed as cell growth inhibition measured after 48 hrs by MTT assay.
Assay [3] relates to HT-29. The assay is described as follows: Antiproliferative activity against human HT-29 cells cultured as 3D spheroids assessed as inhibition of spheroid formation measured after 48 hrs by MTT assay. The conditions noted are these: HT-29, 48 h. Type of assay: functional, cell-based. Background: Formazan colour is commonly taken as a measure of viable cells.
In assay [4] the test system is HT-29. The experiment in a line: Antiproliferative activity in human HT-29 cells cultured as 3D spheroids assessed as reduction in 3D structure of spheroid morphology at IC50 measured after 48 hrs. It is filed as functional, cell-based.
Assay [5] has as its system HT-29. The experiment in a line: Antiproliferative activity in human HT-29 cells cultured as 3D spheroids assessed as gradual disaggregation of peripheral cells at IC50 measured after 48 hrs. Type of assay: functional, cell-based.
For assay [6], the system named is HT-29. The assay is described as follows: Anticlonogenic activity against human HT-29 cells assessed as inhibition of colony formation measured after 6 days by methylene blue staining based assay. Type of assay: functional, cell-based. The conditions noted are these: dose 1.35-2.7 µM, time 6.0 day.
The subject of assay [7] is HT-29. The assay is described as follows: Induction of cell cycle arrest in human HT-29 cells assessed as accumulation of cells at S phase at 2.7 uM measured after 24 hrs by propidium iodide staining based flow cytometry analysis (Rvb= 35.52%). Type of assay: functional. A general note: Flow cytometry measures light scatter and fluorescence of single cells or particles in a stream.

For assay [8], the system named is HT-29. The assay is described as follows: Induction of cell cycle arrest in human HT-29 cells assessed as accumulation of cells at G1 phase at 2.7 uM measured after 24 hrs by propidium iodide staining based flow cytometry analysis (Rvb= 55.39%). It is filed as functional.
Assay [9] deals with HT-29. The experiment in a line: Induction of cell cycle arrest in human HT-29 cells assessed as accumulation of cells at G2 phase at 2.7 uM measured after 24 hrs by propidium iodide staining based flow cytometry analysis (Rvb= 9.09%). Type of assay: functional.
Assay [10] relates to HT-29. The assay is described as follows: Induction of cell cycle arrest in human HT-29 cells assessed as accumulation of cells at S phase at 2.7 uM measured after 48 hrs by propidium iodide staining based flow cytometry analysis (Rvb= 35.52%). Type of assay: functional.
Assay [11] deals with HT-29. The experiment in a line: Induction of cell cycle arrest in human HT-29 cells assessed as accumulation of cells at G1 phase at 2.7 uM measured after 48 hrs by propidium iodide staining based flow cytometry analysis (Rvb= 55.39%). It is filed as functional.
In assay [12] the test system is HT-29. The experiment in a line: Induction of cell cycle arrest in human HT-29 cells assessed as accumulation of cells at G2 phase at 2.7 uM measured after 48 hrs by propidium iodide staining based flow cytometry analysis (Rvb= 9.09%). Type of assay: functional.
Assay [13] deals with HT-29. The experiment in a line: Induction of cell cycle arrest in human HT-29 cells assessed as accumulation of cells at S phase at 2.7 uM measured after 72 hrs by propidium iodide staining based flow cytometry analysis (Rvb= 35.52%). It is filed as functional.
The subject of assay [14] is HT-29. The assay is described as follows: Induction of cell cycle arrest in human HT-29 cells assessed as accumulation of cells at G1 phase at 2.7 uM measured after 72 hrs by propidium iodide staining based flow cytometry analysis (Rvb= 55.39%). Type of assay: functional.
Assay [15] concerns HT-29. The experiment in a line: Induction of cell cycle arrest in human HT-29 cells assessed as accumulation of cells at G2 phase at 2.7 uM measured after 72 hrs by propidium iodide staining based flow cytometry analysis (Rvb= 9.09%). It is filed as functional.
Assay [16] concerns HT-29. The assay is described as follows: Induction of apoptosis in human HT-29 cells assessed as viable cells at 2.7 uM measured after 24 hrs by FITC-annexin V/propidium iodide- double staining based flow cytometry analysis (Rvb= 83.8%). The conditions noted are these: read-out: Activity. It is filed as functional.
The subject of assay [17] is HT-29. The assay is described as follows: Induction of apoptosis in human HT-29 cells assessed as early apoptotic cells at 2.7 uM measured after 24 hrs by FITC-annexin V/propidium iodide- double staining based flow cytometry analysis (Rvb= 12.8%). It is filed as functional.
Assay [18] concerns HT-29. The assay is described as follows: Induction of apoptosis in human HT-29 cells assessed as late apoptotic cells at 2.7 uM measured after 24 hrs by FITC-annexin V/propidium iodide- double staining based flow cytometry analysis (Rvb= 3.0%). It is filed as functional.
Assay [19] deals with HT-29. The assay is described as follows: Induction of apoptosis in human HT-29 cells assessed as dead cells at 2.7 uM measured after 24 hrs by FITC-annexin V/propidium iodide- double staining based flow cytometry analysis (Rvb= 0.4%). Type of assay: functional.
Assay [20] deals with HT-29. The experiment in a line: Induction of apoptosis in human HT-29 cells assessed as viable cells at 2.7 uM measured after 48 hrs by FITC-annexin V/propidium iodide- double staining based flow cytometry analysis (Rvb= 83.8%). The conditions noted are these: read-out: Activity. It is filed as functional.
For assay [21], the system named is HT-29. The experiment in a line: Induction of apoptosis in human HT-29 cells assessed as early apoptotic cells at 2.7 uM measured after 48 hrs by FITC-annexin V/propidium iodide- double staining based flow cytometry analysis (Rvb= 12.8%). Type of assay: functional.
Assay [22] has as its system HT-29. The experiment in a line: Induction of apoptosis in human HT-29 cells assessed as late apoptotic cells at 2.7 uM measured after 48 hrs by FITC-annexin V/propidium iodide- double staining based flow cytometry analysis (Rvb= 3.0%). It is filed as functional.
Assay [23] deals with HT-29. The assay is described as follows: Induction of apoptosis in human HT-29 cells assessed as dead cells at 2.7 uM measured after 48 hrs by FITC-annexin V/propidium iodide- double staining based flow cytometry analysis (Rvb= 0.4%). It is filed as functional.
Assay [24] has as its system HT-29. The experiment in a line: Induction of apoptosis in human HT-29 cells assessed as viable cells at 2.7 uM measured after 72 hrs by FITC-annexin V/propidium iodide- double staining based flow cytometry analysis (Rvb= 83.8%). It is filed as functional. The conditions noted are these: read-out: Activity.
In assay [25] the test system is HT-29. The experiment in a line: Induction of apoptosis in human HT-29 cells assessed as early apoptotic cells at 2.7 uM measured after 72 hrs by FITC-annexin V/propidium iodide- double staining based flow cytometry analysis (Rvb= 12.8%). Type of assay: functional.
The subject of assay [26] is HT-29. The experiment in a line: Induction of apoptosis in human HT-29 cells assessed as late apoptotic cells at 2.7 uM measured after 72 hrs by FITC-annexin V/propidium iodide- double staining based flow cytometry analysis (Rvb= 3.0%). Type of assay: functional.
The subject of assay [27] is HT-29. The experiment in a line: Induction of apoptosis in human HT-29 cells assessed as dead cells at 2.7 uM measured after 72 hrs by FITC-annexin V/propidium iodide- double staining based flow cytometry analysis (Rvb= 0.4%). It is filed as functional.
Assay [28] has as its system HT-29. The assay is described as follows: Induction of apoptosis in human HT-29 cells assessed as activation of caspase-3 at 2.7 uM measured after 24 hrs by flow cytometry analysis (Rvb= 2.2%). Type of assay: functional.
Assay [29] deals with HT-29. The experiment in a line: Induction of apoptosis in human HT-29 cells assessed as activation of caspase-3 at 2.7 uM measured after 48 hrs by flow cytometry analysis (Rvb= 2.2%). It is filed as functional.
The test system of assay [30] is HT-29. The experiment in a line: Induction of apoptosis in human HT-29 cells assessed as activation of caspase-3 at 2.7 uM measured after 72 hrs by flow cytometry analysis (Rvb= 2.2%). It is filed as functional.
The test system of assay [31] is HT-29. The experiment in a line: Induction of mitochondrial membrane potential loss in human HT-29 cells assessed as healthy cells at 2.7 uM measured after 24 hrs by JC-1 staining based flow cytometry analysis (Rvb= 91.4%). It is filed as functional.
Assay [32] relates to HT-29. The experiment in a line: Induction of mitochondrial membrane potential loss in human HT-29 cells assessed as apoptotic cells at 2.7 uM measured after 24 hrs by JC-1 staining based flow cytometry analysis (Rvb= 8.6%). Type of assay: functional.
In assay [33] the test system is HT-29. The assay is described as follows: Induction of mitochondrial membrane potential loss in human HT-29 cells assessed as healthy cells at 2.7 uM measured after 48 hrs by JC-1 staining based flow cytometry analysis (Rvb= 91.4%). It is filed as functional.
Assay [34] deals with HT-29. The assay is described as follows: Induction of mitochondrial membrane potential loss in human HT-29 cells assessed as apoptotic cells at 2.7 uM measured after 48 hrs by JC-1 staining based flow cytometry analysis (Rvb= 8.6%). It is filed as functional.
Assay [35] concerns HT-29. The experiment in a line: Induction of mitochondrial membrane potential loss in human HT-29 cells assessed as healthy cells at 2.7 uM measured after 72 hrs by JC-1 staining based flow cytometry analysis (Rvb= 91.4%). It is filed as functional.
Assay [36] has as its system HT-29. The assay is described as follows: Induction of mitochondrial membrane potential loss in human HT-29 cells assessed as apoptotic cells at 2.7 uM measured after 72 hrs by JC-1 staining based flow cytometry analysis (Rvb= 8.6%). Type of assay: functional.
The next assay concerns the target Tubulin (Homo sapiens) (UniProt P68371+Q9H4B7+P0DPH7+P68366+Q13509+Q71U36+P04350+Q3ZCM7+P07437+P68363+Q9BQE3+Q6PEY2+Q13885+Q9BVA1+Q9BUF5). The assay is described as follows: Induction of tubulin polymerization in human HT-29 cells assessed as stabilization of microtubules at 10 uM by spectrophotometric analysis. Type of assay: cell-based.
Assay [37] concerns KB. The assay is described as follows: Cytotoxicity against human vincristine-sensitive KB cells assessed as cell growth inhibition measured after 72 hrs by MTT assay. Type of assay: functional, cell-based.
In assay [38] the test system is KB. The assay is described as follows: Cytotoxicity against human vincristine-resistant KB cells assessed as cell growth inhibition measured after 72 hrs by MTT assay. Type of assay: functional, cell-based.

On to `C/C=C1/CN2CC[C@]34c5cc([C@@H](C)[C@H]6[C@@H]7C[C@H]8c9c(c%10ccccc%10n9C)C[C@@H]([C@@H]7CO[C@@H]6O)N8C)c(OC)cc5N(C)[C@H]3[C@@H]2C[C@@H]1C4C(=O)OC` (stereo not given in full), for which the IC50 turned out to be 2500 nM in the assay with HT-29 [1], 12200 nM in the assay on CCD-18Co and 10000 nM in the assay with HT-29 [3]. For the same compound, in assay [2], the “Ratio IC50” value amounted to 4.88. Besides, the outcome in the assay with HT-29 [4], in the assay with HT-29 [5] and at Tubulin (Homo sapiens) was Active. Besides, the Activity result is “Dose-Dependent Effect” in the assay on HT-29 [6]; 34.12% in the assay on HT-29 [7]; 56.04% in the assay on HT-29 [8]; 9.84% in the assay with HT-29 [9]; 23.15% in the assay with HT-29 [10]; 67.84% in the assay with HT-29 [11]. Besides, the Activity is 9.01% in the assay with HT-29 [12]; 13.77% in the assay with HT-29 [13]; 76.79% in the assay with HT-29 [14]; 9.44% in the assay on HT-29 [15]; 13.8% in the assay with HT-29 [17]; 9.8% with HT-29 [18]. Further, the Activity in the assay with HT-29 [19] worked out at 0.2%; in the assay on HT-29 [21], 28.2%; in the assay on HT-29 [22] it was 9.9%; in the assay on HT-29 [23], 0.2%; in the assay on HT-29 [25] it was 49.1%; with HT-29 [26], 25.6%. For the same compound, the Activity worked out at 0.2% in the assay with HT-29 [27]; 1.7% in the assay with HT-29 [28]; 8.2% in the assay on HT-29 [29]; 50.2% with HT-29 [30]; 88.7% with HT-29 [31]; 11.3% with HT-29 [32]. Further, the Activity in the assay with HT-29 [33] turned out to be 68.8%; with HT-29 [34], 31.2%; in the assay on HT-29 [35], 35.8%; with HT-29 [36], 64.2%. Also, the values for the viability at 2.7 µM in the assay on HT-29 [16], with HT-29 [20] and with HT-29 [24] were 76.2%, 61.8% and 25.2%, respectively.

For the compound `CC[C@]1(O)C[C@H]2CN(CCc3c([nH]c4ccccc34)[C@@](C(=O)OC)(c3cc4c(cc3OC)N(C=O)[C@H]3[C@@](O)(C(=O)OC)[C@H](OC(C)=O)[C@]5(CC)C=CCN6CC[C@]43[C@@H]65)C2)C1` [VINCRISTINE], the half-maximal inhibitory concentration (IC50) stood at 0.8 nM in the assay with KB [37] and 800 nM in the assay on KB [38].
